# The supplement of paper PMC4862054
# System: CAL-85-1
# Assay: normalised response (% of control), CellTiter-Glo; higher = more viable cells (100 = DMSO, 0 = benzethonium chloride kill control)
# Conditions: incubation time: 72 h
# In short: (§1)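 Normalised signals at single concentrations make up the values. They come from breast cancer cell lines seeded (20 µl suspension) into 384-well plates with compound at 5 concentrations in 10-fold steps over a compound-specific 10,000-fold range, incubated 72 h, and read for CellTox Green fluorescence then CellTiter-Glo luminescence. Each plate was normalised to 0.1 % DMSO (100) and a positive kill control (0).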
row,SMILES,normalised response
1,CNC(=O)c1cc(Oc2ccc(NC(=O)Nc3cc(C(C)(C)C)nn3-c3ccc4ncccc4c3)c(F)c2)ccn1 [Rebastinib] (1 nM),99.5%
2,CCc1cncnc1N1CCN(Cc2nc3ccc(C(F)(F)F)cc3[nH]2)CC1 (1 nM),97.3%
3,O=C(Cc1ccc(-c2ccc(OCCN3CCOCC3)cc2)cn1)NCc1ccccc1 [KX2-391] (1 nM),95.2%
4,O=C(/C=C/c1cccnc1)NCCCCC1CCN(C(=O)c2ccccc2)CC1 [Daporinad] (0.1 nM),101%
5,O=C(O)C(=O)O.[NH-][C@@H]1CCCC[C@H]1[NH-].[Pt+2] [Oxaliplatin] (1 nM),91.3%
6,CC(=O)Nc1cccc(-n2c(=O)n(C3CC3)c(=O)c3c(Nc4ccc(I)cc4F)n(C)c(=O)c(C)c32)c1 [Trametinib] (0.025 nM),102%
7,O=C(O)C1(C(=O)O)CCC1.[NH2-].[NH2-].[Pt+2] [Carboplatin] (1 nM),96.6%
8,C[C@H]1C[C@@H]2[C@H]([C@@H](O)C[C@@]3(C)[C@H]2CC[C@]3(O)C(=O)CO)[C@@]2(C)C=CC(=O)C=C12 [Methylprednisolone] (1 nM),94.5%
9,CC[C@H](C)C(=O)O[C@H]1C[C@H](O)C=C2C=C[C@H](C)[C@H](CC[C@@H](O)C[C@@H](O)CC(=O)O)[C@H]21 [Pravastatin] (10 nM),104%
10,O=C(Cc1ccc(-c2ccc(OCCN3CCOCC3)cc2)cn1)NCc1ccccc1 [KX2-391] (10 nM),97.3%

# System: SK-BR-3
# Assay: as above
# Conditions: incubation time: 72 h
# In short: as §1
row,SMILES,normalised response
1,Nc1nc(F)nc2c1ncn2[C@@H]1O[C@H](CO)[C@@H](O)[C@@H]1O [Fludarabine] (1 nM),111%
2,CC[C@@H]1C(=O)N(C)c2cnc(Nc3ccc(C(=O)NC4CCN(C)CC4)cc3OC)nc2N1C1CCCC1 [BI 2536] (0.1 nM),112%
3,Nc1ncn([C@H]2C[C@H](O)[C@@H](CO)O2)c(=O)n1 [Decitabine] (1 nM),96.2%
4,CC1=C(/C=C/C(C)=C/C=C/C(C)=C/C(=O)O)C(C)(C)CCC1 [Tretinoin] (1 nM),107%
5,COc1cc([C@@H]2c3cc4c(cc3[C@@H](O[C@@H]3O[C@@H]5CO[C@@H](c6cccs6)O[C@H]5[C@H](O)[C@H]3O)[C@H]3COC(=O)[C@H]23)OCO4)cc(OC)c1O [Teniposide] (1 nM),101%
6,CCN(CC)CCCC(C)Nc1c2ccc(Cl)cc2nc2ccc(OC)cc12 (configuration not stated) [Mepacrine] (50 nM),95.3%
7,O=C(/C=C/c1cccnc1)NCCCCC1CCN(C(=O)c2ccccc2)CC1 [Daporinad] (1 nM),113%
8,Nc1nc2[nH]cc(CCc3ccc(C(=O)N[C@@H](CCC(=O)O)C(=O)O)cc3)c2c(=O)[nH]1 [Pemetrexed] (10 nM),97.1%
9,CC[C@H](Nc1ncnc2[nH]cnc12)c1nc2cccc(F)c2c(=O)n1-c1ccccc1 [GS-1101] (10 nM),65%
10,Cc1cnc(NC(=O)Nc2cc(Br)c(C)cc2OC[C@@H]2CNCCO2)cn1 [Rabusertib] (0.1 nM),111%
11,CNC(=O)c1cc(Oc2ccc(NC(=O)Nc3cc(C(C)(C)C)nn3-c3ccc4ncccc4c3)c(F)c2)ccn1 [Rebastinib] (1 nM),104%
12,CCc1cncnc1N1CCN(Cc2nc3ccc(C(F)(F)F)cc3[nH]2)CC1 (1 nM),110%
13,O=C(Cc1ccc(-c2ccc(OCCN3CCOCC3)cc2)cn1)NCc1ccccc1 [KX2-391] (1 nM),120%
14,O=C(/C=C/c1cccnc1)NCCCCC1CCN(C(=O)c2ccccc2)CC1 [Daporinad] (0.1 nM),108%
15,O=C(O)C(=O)O.[NH-][C@@H]1CCCC[C@H]1[NH-].[Pt+2] [Oxaliplatin] (1 nM),90%
16,CC(=O)Nc1cccc(-n2c(=O)n(C3CC3)c(=O)c3c(Nc4ccc(I)cc4F)n(C)c(=O)c(C)c32)c1 [Trametinib] (0.025 nM),110%
17,O=C(O)C1(C(=O)O)CCC1.[NH2-].[NH2-].[Pt+2] [Carboplatin] (1 nM),89.3%
18,C[C@H]1C[C@@H]2[C@H]([C@@H](O)C[C@@]3(C)[C@H]2CC[C@]3(O)C(=O)CO)[C@@]2(C)C=CC(=O)C=C12 [Methylprednisolone] (1 nM),109%
19,CC[C@H](C)C(=O)O[C@H]1C[C@H](O)C=C2C=C[C@H](C)[C@H](CC[C@@H](O)C[C@@H](O)CC(=O)O)[C@H]21 [Pravastatin] (10 nM),95.6%
20,O=C(Cc1ccc(-c2ccc(OCCN3CCOCC3)cc2)cn1)NCc1ccccc1 [KX2-391] (10 nM),87.6%

# System: MDA-MB-436
# Assay: as above
# Conditions: incubation time: 72 h
# In short: as §1
row,SMILES,normalised response
1,Nc1nc(F)nc2c1ncn2[C@@H]1O[C@H](CO)[C@@H](O)[C@@H]1O [Fludarabine] (1 nM),120%
2,CC[C@@H]1C(=O)N(C)c2cnc(Nc3ccc(C(=O)NC4CCN(C)CC4)cc3OC)nc2N1C1CCCC1 [BI 2536] (0.1 nM),104%
3,Nc1ncn([C@H]2C[C@H](O)[C@@H](CO)O2)c(=O)n1 [Decitabine] (1 nM),96.5%
4,CC1=C(/C=C/C(C)=C/C=C/C(C)=C/C(=O)O)C(C)(C)CCC1 [Tretinoin] (1 nM),107%
5,COc1cc([C@@H]2c3cc4c(cc3[C@@H](O[C@@H]3O[C@@H]5CO[C@@H](c6cccs6)O[C@H]5[C@H](O)[C@H]3O)[C@H]3COC(=O)[C@H]23)OCO4)cc(OC)c1O [Teniposide] (1 nM),96.9%
6,CCN(CC)CCCC(C)Nc1c2ccc(Cl)cc2nc2ccc(OC)cc12 (configuration not stated) [Mepacrine] (50 nM),96.2%
7,O=C(/C=C/c1cccnc1)NCCCCC1CCN(C(=O)c2ccccc2)CC1 [Daporinad] (1 nM),105%
8,Nc1nc2[nH]cc(CCc3ccc(C(=O)N[C@@H](CCC(=O)O)C(=O)O)cc3)c2c(=O)[nH]1 [Pemetrexed] (10 nM),91.3%
9,CC[C@H](Nc1ncnc2[nH]cnc12)c1nc2cccc(F)c2c(=O)n1-c1ccccc1 [GS-1101] (10 nM),88.3%
10,Cc1cnc(NC(=O)Nc2cc(Br)c(C)cc2OC[C@@H]2CNCCO2)cn1 [Rabusertib] (0.1 nM),106%
11,CNC(=O)c1cc(Oc2ccc(NC(=O)Nc3cc(C(C)(C)C)nn3-c3ccc4ncccc4c3)c(F)c2)ccn1 [Rebastinib] (1 nM),99.5%
12,CCc1cncnc1N1CCN(Cc2nc3ccc(C(F)(F)F)cc3[nH]2)CC1 (1 nM),107%
13,O=C(Cc1ccc(-c2ccc(OCCN3CCOCC3)cc2)cn1)NCc1ccccc1 [KX2-391] (1 nM),102%
14,O=C(/C=C/c1cccnc1)NCCCCC1CCN(C(=O)c2ccccc2)CC1 [Daporinad] (0.1 nM),101%
15,O=C(O)C(=O)O.[NH-][C@@H]1CCCC[C@H]1[NH-].[Pt+2] [Oxaliplatin] (1 nM),106%
16,CC(=O)Nc1cccc(-n2c(=O)n(C3CC3)c(=O)c3c(Nc4ccc(I)cc4F)n(C)c(=O)c(C)c32)c1 [Trametinib] (0.025 nM),100%
17,O=C(O)C1(C(=O)O)CCC1.[NH2-].[NH2-].[Pt+2] [Carboplatin] (1 nM),101%
